Test system: HApp (pseudoparticles harbouring the influenza hemagglutinin)
Format: cell-based
Details: 11.3 µM arbidol

## CCOC(=O)c1c(CSc2ccccc2)n(C)c2cc(Br)c(O)c(CN(C)C)c12.Cl [Arb, 1H-indole-3-carboxylic acid, 6-bromo-4-[(dimethylamino)-methyl]-5-hydroxy-1-methyl-2-[(phenylthio)methyl]-, ethyl ester, monohydrochloride]
  Sensitivity of pseudoparticle entry to arbidol: sensitive

Source: publication PMC3026800, “Mechanism of Inhibition of Enveloped Virus Membrane Fusion by the Antiviral Drug Arbidol” (PLoS ONE, 2011)
